Laboratory results published in ChEMBL document CHEMBL1151336, “Recent Biosynthetic Studies on Antibiotics” (J Nat Prod, 1980).
Converted amounts (≈) assume the structure as drawn.

Legend:
[1] = tested on: Bacillus subtilis; test: Antibacterial activity against Bacillus subtilis; assay type: functional
[2] = tested on: KB; test: Cytotoxicity against human KB cells; assay type: functional
[3] = Toxicity in orally dosed mouse; assay type: organism-based; conditions: in vivo, po
[4] = tested on: Rous sarcoma virus; test: Antiviral activity against Rous sarcoma virus at 0.5 mg/kg; assay type: functional

CC(=O)c1cccc(N[C@H]2[C@H](N)[C@@](NC(=O)N(C)C)([C@H](C)O)[C@@](C)(O)[C@@]2(O)COC(=O)c2c(C)cccc2O)c1 [PACTAMYCIN]
MIC [1]: 0.8 µg/mL (≈ 1.43 µM)
MIC [2]: 0.003 µg/mL (≈ 0.00537 µM)
LD50 [3]: 10.7 mg/kg
inhibition in vivo at 0.5 mg/kg [4]: 30%
